The conditions of series [1]: cited from earlier work.
For series [2], the system named is PLC/PRF/5 subcutaneous xenograft. Description: PLC/PRF/5 subcutaneous xenograft model, CAR T in combination with sorafenib. The format is in vivo, NPG mice. Here is the method:
2) Inoculation of subcutaneous xenograft: PLC/PRF/5 cells in the logarithmic growth phase and in good growth condition were collected by Trypsin digestion and washed once with normal saline. The cell density was adjusted to 1.5×10^7/mL and 200 μL of cell suspension was injected into the subcutaneous part of the right abdomen of NPG mice using a syringe, that is, each mouse was inoculated with 3×10^6 tumor cells, and the inoculation day was the 0th day.
3) Injection of CAR T: On D14 days after subcutaneous inoculation of tumor cells, the average tumor volume was about 260 mm^3. CAR T cells were injected, and the injection dose: 2.0×10^6/animal. On D1-D14 days after subcutaneous inoculation of tumor cells, sorafenib was administered by gavage at a dose of 75 mg/kg, and the gavage volume was 200 ul, once a day, for 14 consecutive days, and the solvent was used as a negative control.

This is an account of results in patent US20220127570A1, “IMMUNE EFFECTOR CELL AND USE THEREOF” (CAFA THERAPEUTICS LIMITED, priority 2018, published 2022).

On to `CNC(=O)c1cc(Oc2ccc(NC(=O)Nc3ccc(Cl)c(C(F)(F)F)c3)cc2)ccn1` [Sorafenib], for which the “solubility in polyvinylglycerol 400 (PEG400)” value in series [1] (PEG400) is “soluble”. Besides, the solubility in ethanol result in series [1] (ethanol) is listed as “slightly soluble”. In addition, the solubility in water result in series [1] (water) is on record as “poorly soluble”. Besides, the tumor inhibiting rate in series [2] (D18 after injection of CAR T, compared with UTD control group, CAR T 2.0×10^6/animal, sorafenib 75 mg/kg gavage once a day for 14 days) is recorded as 27.38%. Besides, the “body weight of mice compared with UTD” value in series [2] (at the beginning of the treatment) is given as “decreased”. Further, the “body weight of mice” value in series [2] (at the end of the treatment) is “restored”.
